Source: PubChem BioAssay AID1918993 (Molecular Pharmacology Branch, DTP, NCI, 2023)

Tested on: 233499-124-R-J3-PDC complex spheroid growth
Test: Anticancer human tumor 233499-124-R-J3-PDC patient-derived colon adenocarcinoma cell line growth inhibition [AhR]
Settings: for IC50: curve of first compound; for viability, T/C: stronger effect = lower value
Description: Multicellular complex tumor spheroid response to aryl hydrocarbon receptor antagonists in combination with a variety of drugs and investigational agents in selected tumor cell lines
The current study was undertaken to assess response to aryl hydrocarbon receptor antagonists in combination with standard-of-care drugs and investigational agents in solid tumor complex spheroid models. Complex spheroids include a stromal component modeled by human endothelial cells (HUVEC) and fibroblasts modeled by human mesenchymal stem cells (MSCs). The concentration ranges selected for each drug and investigational agent were based upon clinically achievable concentrations if the clinical Cmax of the agent was known.
Compounds. The drugs and investigational agents: BAY 2416964 (NSC825713), GNF351 (NSC835774), CH-223191 (NSC835775), CPI-455 (NSC825282), aza-TdCyd (NSC777586), decitabine (NSC127716), belinostat (NSC758774), entinostat (NSC756642), pevonedistat (NSC761192), tazemetostat (NSC777109), talazoparib (NSC765396), olaparib (NSC753686), selinexor (NSC780203), nedisertib (M3814, NSC802822), bortezomib (NSC756655), venetoclax (NSC766270), doxorubicin (NSC123127), elimusertib (BAY189344, NSC800525), ceralasertib (AZD6738, NSC777638), TAK-243 (NSC785004), alisertib (NSC759677), etoposide (NSC141540), topotecan (NSC609699), eribulin (NSC707389), gemcitabine (NSC613327), carboplatin (NSC241240), cisplatin (NSC119875), and SN-38 (NSC673596) were obtained from the National Cancer Institute (NCI) Developmental Therapeutics Program Chemical Repository (32). The FDA-approved anticancer drug set is available from the Developmental Therapeutics Program at https://dtp.cancer.gov/organization/dscb/obtaining/available plates.htm. […] The stock solutions were prepared in dimethyl sulfoxide (DMSO, Sigma-Aldrich, St. Louis, MO, cat. D2650), except for the platinum compounds which were prepared in saline (Quality Biological, Gaithersburg, MD, cat. 114-055-101), at 800-fold the tested concentration and stored at -70 degrees C prior to their use. All drugs and investigational agents were tested over a range starting from a high concentration at or near the clinical Cmax and decreasing in half-log increments. If the clinical Cmax for an agent had not been determined, the highest concentration tested was 10 microM (Table 1).
Cell Culture. All cells were maintained in an incubator at 37 degrees C and 5% CO2 with 95% humidity. The PDC lines were cultured according to standard operating procedures established by the NCI PDMR (https://pdmr.cancer.gov). Briefly, all PDCs were thawed and cultured in Matrigel-coated flasks prepared with a working solution of 1X Ham's F-12 nutrient mix, without supplementation (Invitrogen, Waltham, MA, cat. 11765054), 100 U/mL penicillin-streptomycin (Invitrogen, cat. 15140122), and 2.5% Matrigel (Corning Inc., Corning, NY, cat. 354248) for the first three passages. All PDCs were cultured in complete DMEM/F-12 media containing advanced DMEM/F-12 (Invitrogen, cat. 12634028), 4.9% defined fetal bovine serum, heat inactivated (HyClone Laboratories Inc., Logan, UT, cat. SH30070.03HI), 389 ng/mL hydrocortisone (Sigma-Aldrich, cat. H4001), 9.7 ng/mL human EGF recombinant protein (Invitrogen, cat. PHG0313), 23.4 microg/mL adenine (Sigma-Aldrich, cat. A2786), 97.3 U/mL penicillin-streptomycin (Invitrogen, cat. 15140122), 1.9 mM L-glutamine (Invitrogen, cat. 25030081), and 9.7 microM Y-27632 dihydrochloride (Tocris Bioscience, Bristol, United Kingdom, cat. 1254). The PDCs were cultured in complete DMEM/F12 media without 10 microM Y-27632 dihydrochloride for at least two passages prior to the screen. The established cell lines NCI-H1341 and […] were cultured in DMEM/F-12, HEPES (Invitrogen, cat. 11330032), 5% defined fetal bovine serum (HyClone Laboratories Inc., cat. SH30070.03), ITS premix universal culture supplement [insulin (5 microg/mL), transferrin (5 microg/mL), and selenious acid (5 ng/mL)] […]

[1] = second compound 0.1 µM, first compound 0.0316 µM
[2] = second compound 0.1 µM, first compound 0.1 µM
[3] = second compound 0.1 µM, first compound 0.316 µM
[4] = second compound 0.1 µM, first compound 1 µM
[5] = second compound 0.1 µM, first compound 3.16 µM
[6] = second compound 0.1 µM, first compound 10 µM
[7] = second compound 0.316 µM, first compound 0.0316 µM
[8] = second compound 0.316 µM, first compound 0.1 µM
[9] = second compound 0.316 µM, first compound 0.316 µM
[10] = second compound 0.316 µM, first compound 1 µM
[11] = second compound 0.316 µM, first compound 3.16 µM
[12] = second compound 0.316 µM, first compound 10 µM
[13] = second compound 1 µM, first compound 0.0316 µM
[14] = second compound 1 µM, first compound 0.1 µM
[15] = second compound 1 µM, first compound 0.316 µM
[16] = second compound 1 µM, first compound 1 µM
[17] = second compound 1 µM, first compound 3.16 µM
[18] = second compound 1 µM, first compound 10 µM
[19] = second compound 3.16 µM, first compound 0.0316 µM
[20] = second compound 3.16 µM, first compound 0.1 µM
[21] = second compound 3.16 µM, first compound 0.316 µM
[22] = second compound 3.16 µM, first compound 1 µM
[23] = second compound 3.16 µM, first compound 3.16 µM
[24] = second compound 3.16 µM, first compound 10 µM
[25] = second compound 10 µM, first compound 0.0316 µM
[26] = second compound 10 µM, first compound 0.1 µM
[27] = second compound 10 µM, first compound 0.316 µM
[28] = second compound 10 µM, first compound 1 µM
[29] = second compound 10 µM, first compound 3.16 µM
[30] = second compound 10 µM, first compound 10 µM
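Note: spheroids exposed to agents for seven days before reading.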

CCc1c2c(nc3ccc(O)cc13)-c1cc3c(c(=O)n1C2)COC(=O)[C@]3(O)CC + CC(CO)NC(=O)c1cc(-c2ccc(Cl)cc2)nn(-c2cnn(C)c2)c1=O
IC50 (second compound 0.1 µM): 300 nM
IC50 (second compound 0.316 µM): > 300 nM
IC50 (second compound 1 µM): > 300 nM
IC50 (second compound 3.16 µM): > 300 nM
IC50 (second compound 10 µM): > 300 nM
viability, T/C (second compound 0.1 µM, first compound 0.000949 µM): 87.3%
viability, T/C (second compound 0.1 µM, first compound 0.003 µM): 98.9%
viability, T/C (second compound 0.1 µM, first compound 0.00949 µM): 73.4%
viability, T/C (second compound 0.1 µM, first compound 0.03 µM): 50.5%
viability, T/C (second compound 0.1 µM, first compound 0.0949 µM): 60.6%
viability, T/C (second compound 0.1 µM, first compound 0.3 µM): 55.1%
viability, T/C (second compound 0.316 µM, first compound 0.000949 µM): 108%
viability, T/C (second compound 0.316 µM, first compound 0.003 µM): 105%
viability, T/C (second compound 0.316 µM, first compound 0.00949 µM): 76.4%
viability, T/C (second compound 0.316 µM, first compound 0.03 µM): 56.2%
viability, T/C (second compound 0.316 µM, first compound 0.0949 µM): 57.9%
viability, T/C (second compound 0.316 µM, first compound 0.3 µM): 66.4%
viability, T/C (second compound 1 µM, first compound 0.000949 µM): 103%
viability, T/C (second compound 1 µM, first compound 0.003 µM): 94.4%
viability, T/C (second compound 1 µM, first compound 0.00949 µM): 80.5%
viability, T/C (second compound 1 µM, first compound 0.03 µM): 64.7%
viability, T/C (second compound 1 µM, first compound 0.0949 µM): 57.9%
viability, T/C (second compound 1 µM, first compound 0.3 µM): 62.5%
viability, T/C (second compound 3.16 µM, first compound 0.000949 µM): 92.8%
viability, T/C (second compound 3.16 µM, first compound 0.003 µM): 88.2%
viability, T/C (second compound 3.16 µM, first compound 0.00949 µM): 71.6%
viability, T/C (second compound 3.16 µM, first compound 0.03 µM): 58%
viability, T/C (second compound 3.16 µM, first compound 0.0949 µM): 72.8%
viability, T/C (second compound 3.16 µM, first compound 0.3 µM): 48.6%
viability, T/C (second compound 10 µM, first compound 0.000949 µM): 93.8%
viability, T/C (second compound 10 µM, first compound 0.003 µM): 70.4%
viability, T/C (second compound 10 µM, first compound 0.00949 µM): 77.9%
viability, T/C (second compound 10 µM, first compound 0.03 µM): 75.4%
viability, T/C (second compound 10 µM, first compound 0.0949 µM): 49.1%
viability, T/C (second compound 10 µM, first compound 0.3 µM): 59.7%

Nc1ccn(C2OC(CO)C(O)C2(F)F)c(=O)n1 (stereo not given) + CC(CO)NC(=O)c1cc(-c2ccc(Cl)cc2)nn(-c2cnn(C)c2)c1=O
IC50 (second compound 0.1 µM): 136 nM
IC50 (second compound 0.316 µM): 113 nM
IC50 (second compound 1 µM): 149 nM
IC50 (second compound 3.16 µM): 202 nM
IC50 (second compound 10 µM): 130 nM
viability, T/C [1]: 58.7%
viability, T/C [2]: 58.9%
viability, T/C [3]: 18.6%
viability, T/C [4]: 30.1%
viability, T/C [5]: 24.2%
viability, T/C [6]: 29.7%
viability, T/C [7]: 50%
viability, T/C [8]: 54%
viability, T/C [9]: 33.6%
viability, T/C [10]: 35%
viability, T/C [11]: 29.3%
viability, T/C [12]: 35.9%
viability, T/C [13]: 61%
viability, T/C [14]: 57.8%
viability, T/C [15]: 35.3%
viability, T/C [16]: 37.7%
viability, T/C [17]: 28.4%
viability, T/C [18]: 36.1%
viability, T/C [19]: 65%
viability, T/C [20]: 69.7%
viability, T/C [21]: 38.9%
viability, T/C [22]: 31.4%
viability, T/C [23]: 37.9%
viability, T/C [24]: 42.4%
viability, T/C [25]: 60.6%
viability, T/C [26]: 54.1%
viability, T/C [27]: 32.1%
viability, T/C [28]: 31.3%
viability, T/C [29]: 51.9%
viability, T/C [30]: 30.1%

O=C(c1cc(Cc2n[nH]c(=O)c3ccccc23)ccc1F)N1CCN(C(=O)C2CC2)CC1 + CC(CO)NC(=O)c1cc(-c2ccc(Cl)cc2)nn(-c2cnn(C)c2)c1=O
IC50 (second compound 0.1 µM): > 10000 nM
IC50 (second compound 0.316 µM): > 10000 nM
IC50 (second compound 1 µM): > 10000 nM
IC50 (second compound 3.16 µM): > 10000 nM
IC50 (second compound 10 µM): > 10000 nM
viability, T/C [1]: 92.2%
viability, T/C [2]: 112%
viability, T/C [3]: 102%
viability, T/C [4]: 103%
viability, T/C [5]: 97.6%
viability, T/C [6]: 103%
viability, T/C [7]: 99.9%
viability, T/C [8]: 92.2%
viability, T/C [9]: 95.1%
viability, T/C [10]: 102%
viability, T/C [11]: 91.2%
viability, T/C [12]: 104%
viability, T/C [13]: 91.1%
viability, T/C [14]: 98.9%
viability, T/C [15]: 102%
viability, T/C [16]: 101%
viability, T/C [17]: 89.2%
viability, T/C [18]: 109%
viability, T/C [19]: 100%
viability, T/C [20]: 84%
viability, T/C [21]: 105%
viability, T/C [22]: 87.6%
viability, T/C [23]: 94.9%
viability, T/C [24]: 89.7%
viability, T/C [25]: 90.1%
viability, T/C [26]: 90%
viability, T/C [27]: 80.8%
viability, T/C [28]: 85%
viability, T/C [29]: 85.5%
viability, T/C [30]: 67.5%
